Tests used:
[1] = test system: dust mite-sensitized rabbits; assay: Bronchial hyperresponsiveness to histamine (Example 27); assay type: in vivo
Experimental: This follow-up study compared the effects of DHEA-S and Puimicort® (budesonide inhalation suspension) on allergen-induced bronchial hyperresponsiveness (BHR) to histamine and pulmonary inflammation in dust mite-sensitized rabbits. The study included 18 animals divided into 3 treatment groups: saline, DHEA-S, and Puimicort. The animals were treated for once per day for 5 consecutive days via nebulization through a pediatric facemask covering the nose and mouth. Treatments were DHEA-S, 10 mg/day (5 mg/ml), Pulmicort Respules, 0.5 mg/day (0.5 mg/2 ml, note: this is the standard human dose) or saline (2 ml). A dust mite challenge was performed on day 4, and development of airway inflammation was assessed 6 hours and 30 hours after dust mite challenge. Histamine sensitivity was assessed 30 hours after challenge (day 5) and the lungs removed for histology.
There was an increase in the area under the curve of 17.42, which means the animals became more sensitive to histamine following allergen exposure. […] The resulting change in the area under the curve was −4.52 and −6.70 for DHEA-S and Puimicort, respectively, this means that animals treated with DHEA-S or Pulmicort were less sensitive to histamine following allergen exposure.

[2] = test system: ragweed-sensitized mice; assay: Bronchial hyperresponsiveness to methacholine, whole-body plethysmograph (Example 28); assay type: in vivo
Experimental: Two groups of mice were sensitized with two intraperitoneal injections and one intranasat administration of ragweed allergen (Ambrosia artemistifolia) on days 0, 4 and 11 respectively. A third group was treated similarly with saline to serve as non-allergic controls. The next two days, the treatment group animals were exposed to DHEA-S delivered as an aerosol (5 mg/ml suspension in saline, 2 ml nebulized) using the whole-body plethysmograph system (Buxco Electronics, Inc., Sharon, Conn.) and a DeVilbiss ultrasonic nebulizer. Twenty-four hours after the last drug exposure, mice were challenged with increasing concentrations of methacholine to determine bronchial hyperresponsiveness and then lavaged to determine relative changes in cell populations in BAL fluid.
The ragweed only group responded in a dose-related fashion with increasing Penh value over the range of methacholine tested and a mean area under the curve of 7488.8.

[3] = Serum and BAL DHEA and DHEA-S levels (Example 26); assay type: in vivo, rabbits; conditions: rabbit, serum, inhaled, 10 mg/day; twenty-four hours after the last of seven daily treatments; prior 4.7
Experimental: (§1) This study defines the effect of 7 days of treatment with DHEA-S on allergen-induced bronchial hyperresponsiveness (BHR), early and late phase responses, and pulmonary inflammation in dust mite-sensitized rabbits. Baseline BHR and inflammation were first determined. DHEA-S (5 mg/ml, 2 ml nebulized) or an equivalent volume of vehicle was delivered once per day via nebulization through a pediatric facemask covering the nose and mouth on days 1 through 7. On day 8, 24 hours after the last treatment, allergen challenge, pulmonary function testing and BALF were performed. On day 9, 24 hours after allergen challenge a histamine challenge was performed and the lungs removed for histology. The study includes 5 animals studied under a crossover design. There was a 3 week resting period between study arms and lungs were taken during the second treatment arm only. The treatment with DHEA-S led to the changes in the disease status of the animals described in the following paragraph.

[4] = test system: dust mite-sensitized rabbits; assay: Pulmonary function after allergen challenge, nebulized (Example 26); assay type: in vivo
Experimental: as §1
Effects on airway obstruction were measured by changes in dynamic compliance and total lung resistance in response to allergen challenge. Rabbits were monitored for 6 hours following allergen challenge and the values plotted against time. Changes in dynamic compliance were determined by the % change in compliance as compared to the animal's initial saline value recorded prior to challenge. Changes in response to allergen and/or treatment were calculated using the AUC where an AUC unit is defined as % change×hour. Treatment with DHEA-S attenuated the drop in airway compliance following allergen challenge by 62% as compared to vehicle treatment. […] Variability during the early phase kept differences in AUC between the vehicle and drug treatment groups from being significant when analyzed using a paired t-test.

CC12CCC3C(CC=C4CC(OS(=O)(=O)[O-])CCC43C)C1CCC2=O.[Na+] (centres unmarked) [DHEA-S, Dehydroepiandrosterone sulfate]
change in the area under the histamine dose-response (resistance) curve [1]: −4.52 | histamine response curve ([1]; 30 hours after challenge): tended to shift the histamine response curve downward | reduction of area under the curve (AUC) of the methacholine response ([2]; aerosol 5 mg/ml suspension, 2 ml nebulized, two days): 46% | mean area under the curve of Penh response to methacholine ([2]; ragweed only 7488.8, non-allergic saline 2646.8): 4038.0 | concentration at 24 h after the last dose [3]: 49 ng/mL | total AUC for airway resistance ([4]; 6 hours, control 315): 377 | PC50 histamine ([4]; 48 hours after the last administration, control 0.84): 0.86 mg/mL | tolerance of pulmonary function testing and histamine challenges ([4]; 7 days of treatment via facemask, qualitative): better than vehicle-treated animals | effect on airway resistance changes ([4]; in the 6 hours after aerosol dust mite challenge): no significant effect | attenuation of the drop in airway compliance following allergen challenge ([4]; nebulized 5 mg/ml, 2 ml once per day, 7 days, compared to vehicle treatment): 62% | nasal congestion following histamine and dust mite challenges ([4]; rabbit, in vivo): no evidence of nasal congestion
